In ChEMBL document CHEMBL1138575, “Synthesis of alpha-amyrin derivatives and their in vivo antihyperglycemic activity” (2009) one finds Activity data, which are given here for 15 compounds.

What all share (assay type): functional
Common to all, as to set-up: scale not given: the % may be the effect or the level left

Assay [1] deals with Rattus norvegicus. Nature of the assay: Antihyperglycemic activity against sucrose-challenged streptozotocin-induced fasted albino Sprague-Dawley rat assessed as reduction in blood glucose at 100 mg/kg, po administered 30 mins before sucrose challenge measured after 5 hrs post sucrose dose.
For assay [2], the system named is Rattus norvegicus. As to the kind of experiment: Antihyperglycemic activity against sucrose-challenged streptozotocin-induced fasted albino Sprague-Dawley rat assessed as reduction in blood glucose at 100 mg/kg, po administered 30 mins before sucrose challenge measured after 24 hrs post sucrose dose.
The subject of assay [3] is Rattus norvegicus. As to the kind of experiment: Antihyperglycemic activity against fasted sucrose-loaded albino rat model assessed as reduction in blood glucose at 100 mg/kg, po administered 30 mins before sucrose challenge measured after 5 hrs post sucrose dose.
Assay [4] concerns Rattus norvegicus. Nature of the assay: Antihyperglycemic activity against fasted sucrose-loaded albino rat model assessed as reduction in blood glucose at 100 mg/kg, po administered 30 mins before sucrose challenge measured after 24 hrs post sucrose dose.

As to `C[C@H]1[C@H](C)CC[C@]2(C)CC[C@]3(C)C(=CC[C@@H]4[C@@]5(C)CC[C@H](OC(=O)c6ccc([N+](=O)[O-])cc6)C(C)(C)[C@@H]5CC[C@]43C)[C@H]12`, the Activity with Rattus norvegicus [1] is given as 13.8%; in the assay with Rattus norvegicus [2], 27.6%.

`C[C@H]1[C@H](C)CC[C@]2(C)CC[C@]3(C)C(=CC[C@@H]4[C@@]5(C)CC[C@H](OC(=O)CCCC(=O)c6ccccc6)C(C)(C)[C@@H]5CC[C@]43C)[C@H]12`: the Activity turned out to be 24% in the assay with Rattus norvegicus [1] and 23.5% in the assay on Rattus norvegicus [2].

With `COc1ccc(CC(=O)O[C@H]2CC[C@]3(C)[C@H]4CC=C5[C@@H]6[C@@H](C)[C@H](C)CC[C@]6(C)CC[C@@]5(C)[C@]4(C)CC[C@H]3C2(C)C)cc1`, the Activity in the assay on Rattus norvegicus [1] came to 17.5%; with Rattus norvegicus [2], 15.6%.

In the case of `CC(=O)O[C@H]1CC[C@]2(C)[C@H]3CC=C4[C@@H]5[C@@H](C)[C@H](C)CC[C@]5(C)CC[C@@]4(C)[C@]3(C)CC[C@H]2C1(C)C`, the Activity in the assay on Rattus norvegicus [1] turned out to be 18.4%; in the assay with Rattus norvegicus [2], 17%.

Turning to `C[C@H]1[C@H](C)CC[C@]2(C)CC[C@]3(C)C(=CC[C@@H]4[C@@]5(C)CC[C@H](OC(=O)c6ccccc6C(=O)O)C(C)(C)[C@@H]5CC[C@]43C)[C@H]12`, the Activity in the assay on Rattus norvegicus [1] was 11%; with Rattus norvegicus [2], 16.5%.

As for `Cc1ccc(C)c(C(=O)O[C@H]2CC[C@]3(C)[C@H]4CC=C5[C@@H]6[C@@H](C)[C@H](C)CC[C@]6(C)CC[C@@]5(C)[C@]4(C)CC[C@H]3C2(C)C)c1`, the Activity with Rattus norvegicus [1] was found to be 24.9%; in the assay with Rattus norvegicus [2] it was 20.2%.

For the compound `C[C@H]1[C@H](C)CC[C@]2(C)CC[C@]3(C)C(=CC[C@@H]4[C@@]5(C)CC[C@H](OC(=O)CNC(=O)c6ccccc6)C(C)(C)[C@@H]5CC[C@]43C)[C@H]12`, the Activity was determined as 3.15% with Rattus norvegicus [1] and 12.1% in the assay on Rattus norvegicus [2].

Consider `C[C@H]1[C@H](C)CC[C@]2(C)CC[C@]3(C)C(=CC[C@@H]4[C@@]5(C)CC[C@H](OC(=O)c6cccnc6)C(C)(C)[C@@H]5CC[C@]43C)[C@H]12`, for which the Activity in the assay with Rattus norvegicus [1] is given as 18.2%; with Rattus norvegicus [2], 27.6%.

In the case of `C[C@H]1[C@H](C)CC[C@]2(C)CC[C@]3(C)C(=CC[C@@H]4[C@@]5(C)CC[C@H](OC(=O)c6ccc7ccccc7n6)C(C)(C)[C@@H]5CC[C@]43C)[C@H]12`, the Activity in the assay with Rattus norvegicus [1] stood at 19.6%; with Rattus norvegicus [2], 17.8%.

In the case of `C/C=C(\C)C(=O)O[C@H]1CC[C@]2(C)[C@H]3CC=C4[C@@H]5[C@@H](C)[C@H](C)CC[C@]5(C)CC[C@@]4(C)[C@]3(C)CC[C@H]2C1(C)C`, the Activity in the assay with Rattus norvegicus [1] came out at 12.7%; in the assay with Rattus norvegicus [2], 22.6%.

Consider `C[C@H]1[C@H](C)CC[C@]2(C)CC[C@]3(C)C(=CC[C@@H]4[C@@]5(C)CC[C@H](O)C(C)(C)[C@@H]5CC[C@]43C)[C@H]12`, for which the Activity with Rattus norvegicus [1] was 13.9%; in the assay on Rattus norvegicus [2], 8.12%.

Take `C[C@H]1[C@H](C)CC[C@]2(C)CC[C@]3(C)C(=CC[C@@H]4[C@@]5(C)CC/C(=N\N(C(=S)Nc6ccccc6)c6ccc([N+](=O)[O-])cc6[N+](=O)[O-])C(C)(C)[C@@H]5CC[C@]43C)[C@H]12`: the figures for the Activity in the assay with Rattus norvegicus [3] and with Rattus norvegicus [4] were 1.2% and 7.35%, respectively.

On to `C[C@H]1[C@H](C)CC[C@]2(C)CC[C@]3(C)C(=CC[C@@H]4[C@@]5(C)CC[C@H](OC(=O)c6ccc(Cl)cc6)C(C)(C)[C@@H]5CC[C@]43C)[C@H]12`, for which the Activity is 22.1% in the assay with Rattus norvegicus [1] and 25.6% in the assay with Rattus norvegicus [2].

As to `C[C@H]1[C@H](C)CC[C@]2(C)CC[C@]3(C)C(=CC[C@@H]4[C@@]5(C)CC[C@H](OC(=O)CCC(=O)O[C@H]6CC[C@]7(C)[C@H]8CC=C9[C@@H]%10[C@@H](C)[C@H](C)CC[C@]%10(C)CC[C@@]9(C)[C@]8(C)CC[C@H]7C6(C)C)C(C)(C)[C@@H]5CC[C@]43C)[C@H]12`, the Activity with Rattus norvegicus [1] amounted to 24.3%; with Rattus norvegicus [2] it was 15.6%.

Turning to `CN(C)C(=N)NC(=N)N` [METFORMIN], the Activity in the assay with Rattus norvegicus [1] is on record as 23.5%; with Rattus norvegicus [2] it was 26.5%.
